Where two headings read alike, the source gives them in different places. Positions of bridges follow the written chain, without caps; N, C: chain ends. Non-standard residues stand in square brackets, D forms with d. Residues, ends and D or L forms follow the SMILES beside them. *: point of attachment. Malonyl(2,2-Me2,histaminyl) = CC(C)(C(=O)NCCc1cnc[nH]1)C(=O)*; Ala(1H-tetrazol-5-yl) = N[C@@H](Cc1nnn[nH]1)C(=O)O; αMePhe(2-F) = C[C@](N)(Cc1ccccc1F)C(=O)O; αMeL = CC(C)C[C@](C)(N)C(=O)O; Nle = CCCC[C@H](N)C(=O)O

What all share (format): cell-based
The target in one assay is T1, human GLP2 receptor (Homo sapiens, UniProt O95838).
T1 construct: expressed in transfected cells; host or cells: HEK cells, BacMam virus transduction
T1 sequence (O95838 1-553): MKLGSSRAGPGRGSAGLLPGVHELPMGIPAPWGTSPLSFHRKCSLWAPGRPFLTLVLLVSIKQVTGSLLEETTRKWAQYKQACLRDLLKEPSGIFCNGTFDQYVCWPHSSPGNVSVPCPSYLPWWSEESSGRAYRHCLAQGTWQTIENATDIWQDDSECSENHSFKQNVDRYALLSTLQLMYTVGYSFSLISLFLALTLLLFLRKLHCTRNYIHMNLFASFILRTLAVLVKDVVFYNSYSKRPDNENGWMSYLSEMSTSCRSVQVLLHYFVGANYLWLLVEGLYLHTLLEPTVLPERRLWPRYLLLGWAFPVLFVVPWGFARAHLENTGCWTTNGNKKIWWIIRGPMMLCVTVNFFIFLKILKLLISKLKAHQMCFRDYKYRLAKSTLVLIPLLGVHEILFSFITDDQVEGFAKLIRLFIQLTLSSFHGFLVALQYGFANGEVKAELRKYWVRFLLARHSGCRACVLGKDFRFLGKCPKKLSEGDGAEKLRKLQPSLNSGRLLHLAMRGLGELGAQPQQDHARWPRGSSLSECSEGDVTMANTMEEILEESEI
The experiment in a line: cAMP accumulation assay, functional agonism of human GLP2 receptor. Conditions: HEK cells infected with human GLP2 receptor BacMam virus, HTRF cAMP; for Emax: HEK293, read-out: Human GLP-2R agonist cAMP Emax; for EC50: read-out: Human GLP-2R agonist cAMP pEC50 (converted). In outline: (§1)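 HTRF cAMP read-out: HEK cells expressing GLP1 or GLP2 receptor via 24 h BacMam infection, frozen before use; agonist exposure 45 min, 37° C, HBSS + 0.5 mM IBMX; stopped with detection reagents in lysis buffer.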

In another assay the target is T2, human GLP1 receptor (Homo sapiens, UniProt P43220).
T2 construct: expressed in transfected cells; host or cells: HEK cells, BacMam virus transduction
The experiment in a line: cAMP accumulation assay, functional agonism of human GLP1 receptor. Conditions: HEK cells infected with human GLP1 receptor BacMam virus, HTRF cAMP; for Emax: HEK293, read-out: Human GLP-1R agonist cAMP Emax; for EC50: read-out: Human GLP-1R agonist cAMP pEC50 (converted). In outline:
as §1

The target in a further assay is T3, mouse GLP2 receptor (Mus musculus, UniProt Q5IXF8).
T3 construct: expressed in transfected cells; host or cells: HEK cells, transient transfection with GeneJuice
T3 sequence (Q5IXF8 1-512): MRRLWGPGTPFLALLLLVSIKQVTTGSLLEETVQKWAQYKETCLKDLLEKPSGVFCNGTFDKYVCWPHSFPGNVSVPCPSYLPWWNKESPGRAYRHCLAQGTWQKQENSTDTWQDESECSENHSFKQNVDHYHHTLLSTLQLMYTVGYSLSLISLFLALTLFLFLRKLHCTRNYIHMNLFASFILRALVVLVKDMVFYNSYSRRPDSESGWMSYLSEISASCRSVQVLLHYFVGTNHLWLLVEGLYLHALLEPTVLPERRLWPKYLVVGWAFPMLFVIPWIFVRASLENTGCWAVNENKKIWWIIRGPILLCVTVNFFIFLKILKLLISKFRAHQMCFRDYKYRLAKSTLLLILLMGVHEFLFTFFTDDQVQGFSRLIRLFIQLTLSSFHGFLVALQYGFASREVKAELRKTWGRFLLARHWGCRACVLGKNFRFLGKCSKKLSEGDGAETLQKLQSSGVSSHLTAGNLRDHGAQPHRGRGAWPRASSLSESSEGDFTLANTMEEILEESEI
The experiment in a line: cAMP accumulation assay, functional agonism of mouse GLP2 receptor. The method, then:
CAMP production upon agonist stimulation of mouse GLP2 or GLP1 receptors was assessed utilizing HiRange cAMP kit (Cisbio). In brief, HEK cells were transiently transfected for 24 hours with cDNA using GeneJuice Transfection reagent (EMD Millipore) and frozen at −80° C. for later use in the assay. On the day, various concentrations of compounds were dispensed using ECHO-555 (LabCyte) to a total volume of 100 nl into a low volume 384-well Proxi plate (Perkin Elmer) followed by addition of 10 μl of cell suspension delivering 8000 cells per well. Cells were prepared in the assay buffer (HBSS (Lonza) supplemented with 0.5 mM IBMX (Tocris)). After 45 min incubation at 37° C., the reaction was stopped by addition of the HTRF detection reagents in the lysis buffer provided in the kit. Following 1-hour incubation at RT, plates were read on Pherastar FS (BMG Labtech, Inc.) using standard HTRF settings. Dotmatics Studies software was used for calculation of pEC50 values by fitting data to a four-parameter concentration response curve.

Where [1] appears, read: HEK293, HEK cells transiently transfected with mouse GLP2 receptor, HTRF cAMP, read-out: Mouse GLP-2R agonist cAMP Emax.
Setting [2] is: HEK cells transiently transfected with mouse GLP2 receptor, HTRF cAMP, read-out: Mouse GLP-2R agonist cAMP pEC50 (converted).

T2 sequence (P43220 24-463): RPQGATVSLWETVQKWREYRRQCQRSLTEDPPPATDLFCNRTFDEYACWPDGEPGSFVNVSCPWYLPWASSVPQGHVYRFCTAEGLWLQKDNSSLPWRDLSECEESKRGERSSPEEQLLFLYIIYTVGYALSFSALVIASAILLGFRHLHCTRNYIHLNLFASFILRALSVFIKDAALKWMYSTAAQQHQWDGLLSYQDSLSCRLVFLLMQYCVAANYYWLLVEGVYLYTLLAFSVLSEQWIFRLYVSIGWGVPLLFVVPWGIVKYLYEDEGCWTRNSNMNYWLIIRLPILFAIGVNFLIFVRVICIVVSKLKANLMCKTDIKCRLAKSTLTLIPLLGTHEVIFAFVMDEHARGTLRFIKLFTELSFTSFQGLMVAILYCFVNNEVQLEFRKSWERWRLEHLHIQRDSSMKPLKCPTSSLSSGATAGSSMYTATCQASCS

Take `CCCC[C@@H]1NC(=O)[C@H](CCC(=O)O)NC(=O)[C@@H](NC(=O)[C@H](CO)NC(=O)[C@](C)(Cc2ccccc2F)NC(=O)[C@H](CO)NC(=O)[C@@H](C)NC(=O)[C@H](CC(=O)O)NC(=O)C(C)(C)C(=O)NCCc2c[nH]cn2)CCCCNC(=O)C[C@@H](C(=O)N[C@@](C)(CC(C)C)C(=O)N[C@@H](CC(C)C)C(=O)N[C@@H](CC(=O)O)C(=O)N[C@H]2CCC(=O)NCCCC[C@@H](C(=O)N[C@@H](CC(=O)O)C(=O)N[C@@H](Cc3ccccc3)C(=O)N[C@H](C(=O)N[C@H]3CCC(=O)NCCCC[C@@H](C(=O)N[C@H]4CCC(=O)NCCCC[C@@H](C(N)=O)NC(=O)[C@H]([C@@H](C)O)NC(=O)[C@H]([C@@H](C)CC)NC(=O)[C@H](CCCCN)NC4=O)NC(=O)[C@H]([C@@H](C)CC)NC(=O)[C@H](CC(C)C)NC(=O)[C@H](Cc4c[nH]c5ccccc45)NC3=O)[C@@H](C)CC)NC(=O)[C@H](C)NC(=O)[C@H](C)NC(=O)[C@H](CCCCN)NC2=O)NC(=O)[C@@H](Cc2ccccc2)NC1=O` [Example 50] ({Malonyl(2,2-Me2,histaminyl)}-D[dA]S[αMePhe(2-F)]SKE[Nle][dF]D[αMeL]LDEKAAKDFIEWLIKEKITK-NH2; lactam 6-10, 14-18, 22-26, 27-31 (inferred); C-terminus assumed): the figures for the Emax at human GLP2 receptor, at human GLP1 receptor and on mouse GLP2 receptor (setting [1]) were 102%, 98.3% and 81%, respectively. Moreover, the EC50 is 0.0251 nM on human GLP2 receptor, 0.1 nM at human GLP1 receptor and 7.94 nM at mouse GLP2 receptor (setting [2]).
Turning to `CCCC[C@H](NC(=O)[C@H](CCC(=O)O)NC(=O)[C@H](CC(=O)O)NC(=O)[C@H](CO)NC(=O)[C@](C)(Cc1ccccc1F)NC(=O)[C@H](CO)NC(=O)CNC(=O)[C@H](Cc1nn[nH]n1)NC(=O)C(C)(C)C(=O)NCCc1c[nH]cn1)C(=O)N[C@H](Cc1ccccc1)C(=O)N[C@H]1CCC(=O)NCCCC[C@@H](C(=O)N[C@H]2CCC(=O)NCCCC[C@@H](C(=O)N[C@@H](CC(=O)O)C(=O)N[C@@H](Cc3ccccc3)C(=O)N[C@H](C(=O)N[C@H]3CCC(=O)NCCCC[C@@H](C(=O)N[C@H]4CCCCNC(=O)CC[C@@H](C(N)=O)NC(=O)[C@H]([C@@H](C)O)NC(=O)[C@H]([C@@H](C)CC)NC(=O)[C@H](CCCCN)NC4=O)NC(=O)[C@H]([C@@H](C)CC)NC(=O)[C@H](CC(C)C)NC(=O)[C@H](Cc4c[nH]c5ccccc45)NC3=O)[C@@H](C)CC)NC(=O)[C@H](C)NC(=O)[C@H](C)NC2=O)NC(=O)[C@H](CC(=O)O)NC(=O)[C@H](CC(C)C)NC(=O)[C@H]([C@@H](C)CC)NC1=O` [Example 52], the Emax at human GLP2 receptor worked out at 102%; at human GLP1 receptor, 98.8%; on mouse GLP2 receptor (HEK293, read-out: Mouse GLP-2R agonist cAMP Emax) it was 103%. Moreover, the results for the EC50 at human GLP2 receptor, at human GLP1 receptor and on mouse GLP2 receptor were 0.01 nM, 0.00251 nM and 0.2 nM, respectively.
Take `CCCC[C@H](NC(=O)[C@H](CCC(=O)O)NC(=O)[C@H](CC(=O)O)NC(=O)[C@H](CO)NC(=O)[C@](C)(Cc1ccccc1F)NC(=O)[C@H](CO)NC(=O)CNC(=O)[C@H](Cc1nn[nH]n1)NC(=O)C(C)(C)C(=O)NCCc1c[nH]cn1)C(=O)N[C@H](Cc1ccccc1)C(=O)N[C@H]1CCC(=O)NCCCC[C@@H](C(=O)N[C@H]2CCCCNC(=O)C[C@@H](C(=O)N[C@@H](Cc3ccccc3)C(=O)N[C@H](C(=O)N[C@H]3CCC(=O)NCCCC[C@@H](C(=O)N[C@H]4CCCCNC(=O)CC[C@@H](C(N)=O)NC(=O)[C@H]([C@@H](C)O)NC(=O)[C@H]([C@@H](C)CC)NC(=O)[C@H](CCCCN)NC4=O)NC(=O)[C@H]([C@@H](C)CC)NC(=O)[C@H](CC(C)C)NC(=O)[C@H](Cc4c[nH]c5ccccc45)NC3=O)[C@@H](C)CC)NC(=O)[C@H](CCCCN)NC(=O)[C@H](C)NC(=O)[C@H](C)NC2=O)NC(=O)[C@H](CC(=O)O)NC(=O)[C@H](CC(C)C)NC(=O)[C@H]([C@@H](C)CC)NC1=O` [Example 53] ({Malonyl(2,2-Me2,histaminyl)}-[Ala(1H-tetrazol-5-yl)]GS[αMePhe(2-F)]SDE[Nle][dF]EILDKKAAKDFIEWLIKKKITE-NH2; lactam 10-14, 15-19, 22-26, 27-31; C-terminus assumed): the Emax on human GLP2 receptor is 102%; on human GLP1 receptor, 99.5%; on mouse GLP2 receptor (setting [1]), 103%. Besides, the figures for the EC50 on human GLP2 receptor, on human GLP1 receptor and on mouse GLP2 receptor (setting [2]) were 0.02 nM, 0.00501 nM and 0.631 nM, respectively.
For `CCCC[C@@H]1NC(=O)[C@H](CCC(=O)O)NC(=O)[C@@H](NC(=O)[C@H](CO)NC(=O)[C@](C)(Cc2ccccc2F)NC(=O)[C@H](CO)NC(=O)[C@@H](C)NC(=O)[C@H](Cc2nn[nH]n2)NC(=O)C(C)(C)C(=O)NCCc2c[nH]cn2)CCCCNC(=O)C[C@@H](C(=O)N[C@@](C)(CC(C)C)C(=O)N[C@@H](CC(C)C)C(=O)N[C@@H](CC(=O)O)C(=O)N[C@H]2CCC(=O)NCCCC[C@@H](C(=O)N[C@@H](CC(=O)O)C(=O)N[C@@H](Cc3ccccc3)C(=O)N[C@H](C(=O)N[C@H]3CCCCNC(=O)C[C@@H](C(=O)N[C@H]4CCC(=O)NCCCC[C@@H](C(N)=O)NC(=O)[C@H]([C@@H](C)O)NC(=O)[C@H]([C@@H](C)CC)NC(=O)[C@H](CCCCN)NC4=O)NC(=O)[C@H]([C@@H](C)CC)NC(=O)[C@H](CC(C)C)NC(=O)[C@H](Cc4c[nH]c5ccccc45)NC3=O)[C@@H](C)CC)NC(=O)[C@H](C)NC(=O)[C@H](C)NC(=O)[C@H](CCCCN)NC2=O)NC(=O)[C@@H](Cc2ccccc2)NC1=O` [Example 56] ({Malonyl(2,2-Me2,histaminyl)}-[Ala(1H-tetrazol-5-yl)][dA]S[αMePhe(2-F)]SKE[Nle][dF]D[αMeL]LDEKAAKDFIKWLIDEKITK-NH2; lactam 6-10, 14-18, 22-26, 27-31 (inferred); C-terminus assumed), the Emax at human GLP2 receptor turned out to be 103%; at human GLP1 receptor, 97.3%; on mouse GLP2 receptor (setting [1]), 98.6%. Also, the EC50 at human GLP2 receptor was 0.0126 nM; on human GLP1 receptor, 0.0631 nM; on mouse GLP2 receptor (setting [2]), 0.631 nM.
